Literature values, collected in patent publication US9226906B2, “Method and nutritional supplement for enhancing weight gain of a mammal” (Supragenix, LLC, priority 2013, dated 2016).

Biological target: CB1 (Homo sapiens, UniProt P21554)
Sequence (P21554 whole entry, species assumed): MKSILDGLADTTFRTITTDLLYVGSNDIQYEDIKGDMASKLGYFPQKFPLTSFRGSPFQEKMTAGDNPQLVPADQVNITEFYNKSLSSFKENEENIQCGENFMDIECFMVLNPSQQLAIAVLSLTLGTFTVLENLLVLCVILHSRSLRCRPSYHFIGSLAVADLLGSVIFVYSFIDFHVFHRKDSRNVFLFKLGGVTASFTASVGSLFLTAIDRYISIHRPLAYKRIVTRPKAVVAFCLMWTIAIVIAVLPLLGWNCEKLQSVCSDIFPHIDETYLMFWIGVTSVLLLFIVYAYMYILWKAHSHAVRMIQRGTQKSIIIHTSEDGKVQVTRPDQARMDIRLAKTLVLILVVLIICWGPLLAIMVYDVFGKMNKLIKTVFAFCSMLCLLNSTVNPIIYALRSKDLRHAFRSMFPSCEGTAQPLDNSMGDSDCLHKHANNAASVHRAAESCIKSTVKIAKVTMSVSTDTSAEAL

Row | Molecule | activating CB1
1 | CCC/C=C\CC/C=C/C=C/C(=O)NCC(C)C [Dodeca-2E,4E,8Z-trienoic acid isobutylamide] | effective in activating CB1
2 | CCCCCCC/C=C/C=C/C(=O)NCC(C)C [Dodeca-2E,4E-dienoic acid isobutylamide] | effective in activating CB1
3 | CC#CC#CCC/C=C\C=C\C(=O)NCC(C)C [Dodeca-2E,4Z-diene-8,10-diynoic acid isobutylamide] | effective in activating CB1
4 | CC#CC#CCCCC/C=C/C(=O)NCC(C)CC (centres unmarked) [Dodeca-2E-ene-8,10-diynoic acid 2-methylbutylamide] | effective in activating CB1
5 | C#CC#CC/C=C\CCCCC/C=C/C(=O)NCC(C)C [Pentadeca-2E,9Z-diene-12,14-diynoic acid isobutylamide] | effective in activating CB1
6 | C#CC#CCCCCC=CC(=O)NCC(C)C [Undeca-2-ene-8,10-diynoic acid isobutylamide] | effective in activating CB1
7 | C#CC#CCC/C=C/C=C\C(=O)NCC(C)C [Undeca-2Z,4E-diene-8,10-diynoic acid isobutylamide] | effective in activating CB1
8 | Dodeca-2E,4E,8Z,10E/Z-tetraenoic acid isobutylamides | effective in activating CB1
